The text below walks through data of patent publication US20250041252A1, “POWDERS FOR INHALATION AND PRODUCTION PROCESS THEREOF” (UNIVERSITA' DEGLI STUDI DI PARMA, priority 2021, published 2025).

For the series the following is noted: about 8 mg of LANE, end of test, filter wash.

Text: The apparatus is consisting of an upper part, the donor chamber, and a lower part, the receiving chamber, held together by means of a metal clamp, but separated by a glass microfiber filter, used as a diffusion membrane, and placed horizontally in contact with the dissolution medium. The receiving chamber contains a magnetic stirrer.
The dissolution medium used for the analysis is phosphate buffered saline (PBS), prepared weighing 8 g of NaCl, 0.2 g of KCl, 1.44 g of Na2HPO4, and 0.12 g of KH2PO4 dissolved in 1 L of distilled water, with a final pH of 7.4. During the analysis, RespiCell™ was thermostated (Lauda eco silver E4, DE) at 37±0.5° C.
The receiving chamber was filled with PBS and sampled at pre-established time intervals through the side arm of the cell. Before the analysis 1 mL of the dissolution medium was applied on the filter, to get it completely wet.
To assess the not dissolved or trapped in the filter drug amount, the not dissolved residual powder was recovered washing the filter with 5 mL of a methanol:water 75:25 v/v mixture, at the end of the experiment. The drug amount in the samples was quantified by HPLC analysis.

Take `CCN(CC)CC(=O)Nc1c(C)cccc1C` [Lidocaine powder raw material, lidocaine]: the “Lidocaine retained on and inside the filter” value is recorded as 0.1 ± 0.0 mg.
